Results on 13 molecules are retold here after patent US12344595B2, “2-amino-n-phenyl-nicotinamides as NAV1.8 inhibitors” (Merck Sharp & Dohme LLC, priority 2018, dated 2025).

This test concerns the target human Nav1.8 (Homo sapiens (Human), UniProt Q9Y5Y9). The test is described as follows: Nav1.8 Qube automated patch-clamp assay. The conditions noted are these: Nav1.8 Qube Assay; human Nav1.8 channels stably expressed in HEK 293 cells. The test is classed as cell-based. In a few lines: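 Whole-cell automated patch clamp was run at room temperature on HEK293 cells stably expressing the channel. A 1 Hz, 10 s train of 20 ms pulses to 10 mV from −90 mV (repolarizing to −67 mV) was applied. Peak currents at the 1st and 10th pulses gave resting and inactivated-state IC50 values by Hill fit.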
(In general: Patch clamp records ionic current or voltage across a cell membrane.)

pIC50: −log10 of the molar value.

Chain of human Nav1.8 (Q9Y5Y9 whole entry): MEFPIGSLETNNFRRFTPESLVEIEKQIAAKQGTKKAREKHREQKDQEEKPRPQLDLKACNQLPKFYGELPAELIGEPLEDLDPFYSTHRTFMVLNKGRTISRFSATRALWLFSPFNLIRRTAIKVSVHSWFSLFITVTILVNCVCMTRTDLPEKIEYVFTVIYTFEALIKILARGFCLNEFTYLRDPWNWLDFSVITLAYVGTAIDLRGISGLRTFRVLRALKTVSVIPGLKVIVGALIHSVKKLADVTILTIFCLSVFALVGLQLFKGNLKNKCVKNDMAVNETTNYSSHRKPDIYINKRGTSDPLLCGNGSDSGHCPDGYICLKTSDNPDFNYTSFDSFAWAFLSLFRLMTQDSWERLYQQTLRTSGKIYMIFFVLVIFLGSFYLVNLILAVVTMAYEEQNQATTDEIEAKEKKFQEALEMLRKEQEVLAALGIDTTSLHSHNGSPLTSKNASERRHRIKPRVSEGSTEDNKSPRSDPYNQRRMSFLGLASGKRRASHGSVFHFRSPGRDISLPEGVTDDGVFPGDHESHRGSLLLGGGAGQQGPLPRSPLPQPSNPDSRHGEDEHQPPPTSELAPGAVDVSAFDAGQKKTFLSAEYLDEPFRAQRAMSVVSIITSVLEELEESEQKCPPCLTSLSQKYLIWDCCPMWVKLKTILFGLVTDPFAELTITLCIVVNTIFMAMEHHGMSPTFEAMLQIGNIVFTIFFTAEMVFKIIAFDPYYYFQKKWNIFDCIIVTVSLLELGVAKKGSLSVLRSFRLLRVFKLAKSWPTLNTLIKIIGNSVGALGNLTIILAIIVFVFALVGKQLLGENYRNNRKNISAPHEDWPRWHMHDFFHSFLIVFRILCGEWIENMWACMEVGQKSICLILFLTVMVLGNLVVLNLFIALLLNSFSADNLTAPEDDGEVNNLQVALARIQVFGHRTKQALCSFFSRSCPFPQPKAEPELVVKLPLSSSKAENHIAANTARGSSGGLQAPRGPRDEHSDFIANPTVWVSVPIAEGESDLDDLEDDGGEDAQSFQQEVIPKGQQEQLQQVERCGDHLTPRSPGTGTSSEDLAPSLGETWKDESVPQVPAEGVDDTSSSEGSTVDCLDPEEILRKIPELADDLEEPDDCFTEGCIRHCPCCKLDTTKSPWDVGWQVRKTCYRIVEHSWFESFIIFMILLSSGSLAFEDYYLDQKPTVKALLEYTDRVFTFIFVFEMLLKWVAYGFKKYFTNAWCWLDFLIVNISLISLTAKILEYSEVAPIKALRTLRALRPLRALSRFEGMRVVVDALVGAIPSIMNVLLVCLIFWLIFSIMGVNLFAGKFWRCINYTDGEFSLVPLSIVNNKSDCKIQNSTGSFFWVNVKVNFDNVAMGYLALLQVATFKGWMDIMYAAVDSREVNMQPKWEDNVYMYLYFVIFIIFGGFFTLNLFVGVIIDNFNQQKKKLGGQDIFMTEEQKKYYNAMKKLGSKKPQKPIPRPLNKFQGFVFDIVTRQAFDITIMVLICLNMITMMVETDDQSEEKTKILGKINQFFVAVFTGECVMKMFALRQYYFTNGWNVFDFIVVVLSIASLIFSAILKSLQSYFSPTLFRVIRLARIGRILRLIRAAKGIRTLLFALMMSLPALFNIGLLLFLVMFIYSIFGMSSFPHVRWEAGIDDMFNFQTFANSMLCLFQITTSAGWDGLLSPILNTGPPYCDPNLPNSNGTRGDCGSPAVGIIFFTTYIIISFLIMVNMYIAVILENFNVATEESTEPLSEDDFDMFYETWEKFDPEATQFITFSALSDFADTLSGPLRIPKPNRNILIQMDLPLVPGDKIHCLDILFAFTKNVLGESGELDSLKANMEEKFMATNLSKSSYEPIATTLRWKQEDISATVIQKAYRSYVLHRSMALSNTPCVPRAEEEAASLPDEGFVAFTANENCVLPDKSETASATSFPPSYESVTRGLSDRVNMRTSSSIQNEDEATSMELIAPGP

Usually pIC50 stands for the IC50 on a negative log10 scale, so that one unit is a factor of ten. As for `CS(=O)(=O)c1cccc(NC(=O)c2cc(C(F)(F)F)cnc2N2CCC3(CC2)CC3)c1` [Example 99, 2-(6-azaspiro[2.5]octan-6-yl)-N-(3-methylsulfonylphenyl)-5-(trifluoromethyl)-pyridine-3-carboxamide], the negative logarithm of the IC50 (pIC50) is 6.88. `NS(=O)(=O)c1cccc(NC(=O)c2cc(C(F)(F)F)cnc2N2CC(C(F)(F)F)C2)c1` [Example 58, N-(3-sulfamoylphenyl)-5-(trifluoromethyl)-2-[3-(trifluoromethyl)-azetidin-1-yl]pyridine-3-carboxamide] gave a negative logarithm of the IC50 (pIC50) of 6.21.

`NS(=O)(=O)c1cccc(NC(=O)c2cc(C3CCCC3)cnc2N2CCCCC2)c1` [Example 154, 5-cyclopentyl-2-(piperidin-1-yl)-N-(3-sulfamoylphenyl)-nicotinamide] showed a pIC50 of 5.75.

Consider `NS(=O)(=O)c1cccc(NC(=O)c2cc(C(F)(F)F)cnc2N2CC3CCC3(C(F)(F)F)C2)c1` (single isomer, unassigned) [Example 131, N-(3-sulfamoylphenyl)-5-(trifluoromethyl)-2-[(1S,5S or 1R,5R)-1-(trifluoromethyl)-3-azabicyclo[3.2.0]heptan-3-yl]pyridine-3-carboxamide], for which the negative-log IC50 (pIC50) was 6.95. As to `NS(=O)(=O)c1cccc(NC(=O)c2cc(C(F)(F)F)cnc2N2CCO[C@H](C(F)(F)F)C2)c1` [Example 140, N-(3-sulfamoylphenyl)-5-(trifluoromethyl)-2-[(2S)-2-(trifluoro-methyl)--morpholin-4-yl]pyridine-3-carboxamide], the negative logarithm of the IC50 (pIC50) is 7.08. Then `Cc1ccnc(N2CCCCCC2)c1C(=O)Nc1cccc(S(N)(=O)=O)c1` [Example 175, 2-(azepan-1-yl)-4-methyl-N-(3-sulfamoyl-phenyl)pyridine-3-carboxamide], with 6.54; and `NC(=O)c1cccc(NC(=O)c2cc(C(F)(F)F)cnc2N2CCCC(F)(F)CC2)c1` [Example 106, N-(3-carbamoylphenyl)-2-(4,4-difluoroazepan-1-yl)-5-(trifluoro-methyl)pyridine-3-carboxamide], with 7.49; and `Cc1nc(N2CCCCCC2)c(C(=O)Nc2cccc(C(N)=O)c2)cc1C#N` [Example 178, 2-(azepan-1-yl)-N-(3-carbamoylphenyl)-5-cyano-6-methyl-pyridine-3-carboxamide], with 7.27. Then `NS(=O)(=O)c1cccc(NC(=O)c2cc(C(F)(F)F)cnc2N2C[C@H]3C[C@@H](C2)C3(F)F)c1` [Example 132, 2-[(1R,5S)-6,6-difluoro-3-azabicyclo[3.1.1]-heptan-3-yl]-N-(3-sulfamoylphenyl)-5-(trifluoromethyl)-pyridine-3-carboxamide], with 6.77; and `NS(=O)(=O)c1cccc(NC(=O)c2cc(C(F)(F)F)cnc2N2CC3CC(F)(F)C3C2)c1` (single isomer, unassigned) [Example 135, 2-[(1S,5R or 1R,5S)-6,6-difluoro-3-azabicyclo[3.2.0]heptan-3-yl]-N-(3-sulfamoyl-phenyl)-5-(trifluoro-methyl)pyridine-3-carboxamide], with 7.43; and `O=C(Nc1ccc2c(c1)S(=O)(=O)C=C2)c1cc(C(F)(F)F)cnc1N1CCCCCC1` [Example 118, 2-(azepan-1-yl)-N-(1,1-dioxobenzothiophen-6-yl)-5-(trifluoromethyl)-pyridine-3-carboxamide], with 5.64. Molecule `CC(C)(C)c1ccc(C(=O)Nc2cccc(S(C)(=O)=O)c2)c(N2CCCCC2)n1` [Example 41, 6-tert-butyl-N-(3-methylsulfonylphenyl)-2-(1-piperidyl)pyridine-3-carboxamide] gave a pIC50 of 5.33. In turn, `CC1CCN(c2ncc(C(F)(F)F)cc2C(=O)Nc2cccc(S(N)(=O)=O)c2)CC(C)(C)C1` (stereo not shown) [Example 47, N-(3-sulfamoylphenyl)-5-(trifluoromethyl)-2-(3,3,5-trimethylazepan-1-yl)pyridine-3-carboxamide] showed a pIC50 of 7.54.
